The values that follow come from patent publication US6599507B2, “Composition for the treatment of immune deficiencies and methods for its preparation and use” (Ardenia Investments, Ltd., priority 1998, dated 2003).

“Also recorded” adds a separate entry of the source.

For data set [1], the system named is antibody-forming cells (AFC) in the spleen of mice immunized with sheep erythrocytes. The data set is described as follows: Humoral immune response: count of antibody-forming cells (AFC) in the spleen according to Cunningham. In kind it is in vivo, mouse. The settings on record: for relative amount of AFC / total AFC amount: CBA mice, i.v., sheep erythrocytes i.p.; for immunogenic / immunostimulating activity, effect on humoral immune response (in words): mice immunized with sheep erythrocytes. The procedure: The influence of AFPIN-AAP complexes as well as their basic components on humoral immune response was estimated by counting the quantity of antibody-forming cells (AFC) in the spleen.
AFP was administered intravenously to 10 mouse males of CBA line (weight 18-22 g) in a dose of 0.009 mg per capita. Simultaneously 5% sheep erythrocytes suspension was injected peritoneally (0.2 ml per capita) to both control and experimental animals. The control animals were also injected with the equal volume of NaCl isotonic solution intravenously.
The effect of AFP on humoral immune response was analyzed by counting the quantity of AFC in the spleen according to Cunningham (Cunningham A. J., Nature, v.207, p. 1106-1107, 1965) (per 10^6 spleen cells and per spleen).
N-AAP was administered intravenously to 10 mouse males of CBA line (weight 18-22 g) in a dose of 0.09 mg per capita Simultaneously 5% sheep erythrocytes suspension was injected peritoneally (0.2 ml per capita). Control series were injected with 0.15 ml NaCl isotonic solution intravenously. The effect of N-AAP on humoral immune response was analysed by counting the quantity of AFC in the spleen according to Cunningham (per 10^6 spleen cells and per spleen).
0.15 ml AFP/N-AAP complex was administered intravenously to 10 mouse males of CBA line (weight 18-22 g) in a dose of 0.009 mg AFP and 0.09 mg N-AAP per capita. Simultaneously 5% sheep erythrocytes suspension was injected peritoneally (0.2 ml per capita). Control series were intravenously injected with equal volumes of NaCl isotonic solution. The effect of the AFP/N-AAP complex on humoral immune response was analyzed by counting the quantity of AFC in the spleen according to Cunningham (per 10^6 spleen cells and per spleen).
0.15 ml AFP/N-AAP complex was administered intravenously to 10 mouse males of CBA line (weight 18-22 g) in a dose of 0.009 mg AFP and 0.045 mg N-AAP per capita. Simultaneously 5% sheep erythrocytes suspension was injected peritoneally (0.2 ml per capita). Control series were intravenously injected with equal volumes of NaCl isotonic solution. The effect of the AFP/N-AAP complex on humoral immune response was analyzed by counting the quantity of AFC in the spleen according to Cunningham (per 10^6 spleen cells and per spleen).
0.15 ml AFP/N-AAP complex was administered intravenously to 10 mouse males of CBA line (weight 18-22 g) in a dose of 0.009 mg AFP and 0.135 mg N-AAP per capita. Simultaneously 5% sheep erythrocytes suspension was injected peritoneally (0.2 ml per capita) Control series were intravenously injected with equal volumes of NaCl isotonic solution. The effect of the AFP/N-AAP complex on humoral immune response was analyzed by counting the quantity of AFC in the spleen according to Cunningham (per 10^6 spleen cells and per spleen).
In order to determine the effect of the inventive complex, 0.15 ml AFP/N-AAP complex was administered intravenously to 10 mouse males of CBA line (weight 18-22 g) in the dose of 0.009 mg rat AFP and 0.09 mg N-AAP per capita. Simultaneously 5% sheep erythrocytes suspension was injected peritoneally (0.2 ml per capita). Control series were injected intravenously with equal volumes of isotonic NaCl solution. The effect of rat AFP/N-AAP complex on humoral immune response was analyzed by counting the quantity of AFC in the spleen according to Cunningham (per 10^6 spleen cells and per spleen).

Another data set relates to random breed male mice. The data set is described as follows: Acute toxicity, single intravenous injection, method of Litchfield and Wilcoxon. In kind it is in vivo, mouse. Here is the method:
The toxicity of N-AAP was studied in random breed male mice (19-24 g). A water solution of N-AAP was injected once slowly in the tail vein of mice in a range of doses 40-70 mg/kg. Each group of mice included 6 animals, at least The assessment of acute toxicity was carried out according to the method of Litchfield et al. (Litchfield J. T., Wilcoxon F., J. Pharmacol. Exptl. Therap., Vol.96, P. 99-103, 1949).

In the next data set the target is T1, human AFP (Homo sapiens, UniProt P02771).
T1 construct: from tissue; host or cells: human cord blood
The data set is described as follows: Competitive substitution of [3H]arachidonic acid from the AFP binding site (Scatchard). Here is the method: To determine N-AAP affinity to human AFP a competitive substitution of [5, 6, 8, 9, 11, 12, 14, 15-^3H] arachidonic from the protein's binding site was used. To tubes containing 0.05 nM AFP in 1 ml 0.1 M bicarbonate buffer and 0.7 nM [3H] arachidonic acid and the increasing amounts of arachidonic acid or N-AAP (5-5000 nM) were added. The tubes were incubated for 2 hr at room temperature. To separate protein-bound and free fractions of [3H] arachidonic acid 0.5 ml of 0.5% suspension of activated carbon was added to each tube and incubated at 4° C. for 30 min. The carbon was sedimented by centrifugation at 3000 g, aliquots were added to 10 ml scintillating mixture and the vials were measured in beta-counter.
The binding parameters of arachidonic acid and N-AAP and the number of binding sites per protein molecule were calculated according to Scatchard (Scatchard O., Ann. N.Y. Acad. Sci. 51., p 660-664, 1949).

Setting [2] is: mice, single i.v. injection in tail vein.

As to `CCCCC/C=C\C/C=C\C/C=C\C/C=C\CCCC(=O)NCCOP(=O)(O)O` [N-AAP, N-arachidonoyl aminoethylphosphate], in data set [1] (5-th day after injection), the “relative amount of AFC in comparison with control (in words)” value is on record as “not significantly changed”, the “relative amount of AFC” value is on record as 342.2±28.5 per 10^6 cells and the “total AFC amount” value is given as 36.0±8.7 10^3 per spleen. Moreover, the “immunogenic / immunostimulating activity, effect on humoral immune response (in words)” value (“immunogenic / immunostimulating activity” for short) in data set [1] is “does not exhibit immunogenic activity; also recorded: no immunogenic activity”. Moreover, in the data set on random breed male mice (setting [2]), the DL10 is 46 mg/kg; and the DL90 is reported as 87 mg/kg. Besides, in the data set with random breed male mice (mice, single i.v. injection in tail vein, p = 0.05), the DL50 was 63 (54.8 ÷ 72.5) mg/kg at p = 0.05;. The same molecule yielded a therapeutic index in the data set with random breed male mice (mouse, in vivo) of 10. The molecule also showed a Ki at human AFP of 333 nM.
On to `CCCCC/C=C\C/C=C\C/C=C\C/C=C\CCCC(=O)O` [arachidonic acid, reference compound], for which the “n (number of binding sites per protein molecule)” value on human AFP (three independent determinations, Scatchard) is > 1.2.

B1: AFP: Alpha-fetoprotein isolated from human cord blood, more than 99% purity (protein, UniProt P02771 19-609, looked up)
Alpha-fetoprotein: RTLHRNEYGIASILDSYQCTAEISLADLATIFFAQFVQEATYKEVSKMVKDALTAIEKPTGDEQSSGCLENQLPAFLEELCHEKEILEKYGHSDCCSQSEEGRHNCFLAHKKPTPASIPLFQVPEPVTSCEAYEEDRETFMNKFIYEIARRHPFLYAPTILLWAARYDKIIPSCCKAENAVECFQTKAATVTKELRESSLLNQHACAVMKNFGTRTFQAITVTKLSQKFTKVNFTEIQKLVLDVAHVHEHCCRGDVLDCLQDGEKIMSYICSQQDTLSNKITECCKLTTLERGQCIIHAENDEKPEGLSPNLNRFLGDRDFNQFSSGEKNIFLASFVHEYSRRHPQLAVSVILRVAKGYQELLEKCFQTENPLECQDKGEEELQKYIQESQALAKRSCGLFQKLGEYYLQNAFLVAYTKKAPQLTSSELMAITRKMAATAATCCQLSEDKLLACGEGAADIIIGHLCIRHEMTPVNPGVGQCCTSSYANRRPCFSSLVVDETYVPPAFSDDKFIFHKDLCQAQGVALQTMKQEFLINLVKQKPQITEEQLEAVIADFSGLLEKCCQGQEQEVCFAEEGQKLISKTRAALGV
B1: in data set [1] (5-th day after injection), the “total AFC amount in comparison with control (in words)” value is “not significantly changed”, the “relative amount of AFC” value is listed as 255.5±13 per 10^6 cells and the “total AFC amount” value is 23.6±1.5 10^3 per spleen. Besides, the “lower relative amount of AFC in comparison with control group” value in data set [1] (5-th day after injection, AFP 0.009 mg per capita i.v.) stood at 30%. For the same molecule, the “immunogenic / immunostimulating activity” value in data set [1] is listed as “reduces or does not significantly effect the immunogenic characteristics of sheep erythrocytes”.

B2: Rat AFP: Rat alpha-fetoprotein isolated from neonatal rat serum by immunoaffinity (protein, UniProt P02773 25-611, looked up)
Alpha-fetoprotein: RVLHTNEFGIESTLDSSQCPTEKNMFNVATIVVAQFVQDATKAEVNKMSSDALAAMKENTGDGCLENQLSVFLDEICHETELSNKYGFSGCCNQSGVERHQCLLARKKTAPDSVPPFHFPETAESCPAYEENRAMSINTFIYDVSKRNPFLYAPTILYLAAQYDKAVPACCKADNMEECFQTKRASMAKELREGSMLNEHVCAVIRKFGSRNLQAVLIIKLSQKFPKANITEIRKLALDVAHIHEQCCHGNAMECLQDGESVMTHMCSQQEILSSKTAECCKLPTIELGYCIIHAENGDKPEGLTLNPSEFLGDRNFAQFSSEEKLLFMASFLHEYSRNHPNLPVSVILKTAKSYQEILEKCSQSETPSKCQDNMEEELQKHIQESQALAKQSCNLYQKLGPYYLQNLFLIGYTRKAPQLTSAELIDLTGKMVSIASTCCQLSEEKRSACGEGLADIYIGHLCLRHEANPVNSGINHCCSSSYSNRRLCITSFLRDETYVPPPFSEDKFIFHKDLCQAQGRALQTMKQELLINLVKQKPEMTEEQHAAVTADFSGLLEKCCKDQDQEACFAKEGPKLISKTREALGV
For B2, in data set [1] (5-th day after injection), the “relative amount of AFC” value is on record as 428.1±11.5 per 10^6 cells and the “total AFC amount” value is given as 60.3±13.5 10^3 per spleen. The “immunogenic / immunostimulating activity” value in data set [1] is “no immunogenic activity”.
